In patent publication US20210393742A1, “LONG-ACTING INTERLEUKIN-15 RECEPTOR AGONIST IN COMBINATION WITH ANOTHER PHARMACOLOGICALLY ACTIVE AGENT” (Nektar Therapeutics, priority 2018, published 2021):

How the values were obtained:
[1] = tested on: Daudi B cell lymphoma; assay: Survival in Daudi B cell lymphoma xenograft model, combination with rituximab (Example 1); assay type: in vivo, mice; settings: after about 30 days; rituximab 40 mg/kg IP, days 14 and 17
Procedure: At day 0, SCID mice were intravenously injected with 1×10^7 Daudi cells. The mice were divided into four groups. On days 14 and 17 post-Daudi cell injection, the groups were treated by injection as follows: Group 1: isotype control antibody, Group 2: 40 mg/kg IP rituximab, Group 3: 0.3 mg/kg mono(methoxyPEG-N-butanamide)40 kD interleukin-15 (a long-acting IL-15 receptor agonist), Group 4: 40 mg/kg IP rituximab and 0.3 mg/kg SC mono(methoxyPEG-N-butanamide)40 kD interleukin-15 (combination).
The survival rate was determined by measuring the onset of hind limb paralysis as a surrogate parameter.

[2] = tested on: Daudi B cell lymphoma; assay: Survival in Daudi B cell lymphoma xenograft model, combination with daratumumab (Example 3); assay type: in vivo, mice; settings: post tumor injection; daratumumab 0.5 mg/kg IP day 14; agonist 0.3 mg/kg SC days 14, 21, 28
Procedure: SCID mice (N=8/group) inoculated intravenously with 1×10^7 Daudi B cell lymphoma cells were treated with a single dose of daratumumab (0.5 mg/kg, IP, 14 days after inoculation) and a total of three doses of mono(methoxyPEG-N-butanamide)40 kD interleukin-15 (0.3 mg/kg, SC, administered 14, 21 and 28 days after tumor inoculation). Also evaluated were untreated mice as a control and mice treated with daratumumab as a single agent therapy. Survival of tumor-inoculated mice was measured by body condition scoring as endpoint marker. Results are provided graphically in FIG. 5.

[3] = tested on: NK cells; assay: NKG2A and NKG2D surface expression on bone marrow NK cells of Daudi lymphoma bearing mice (Example 4); assay type: in vivo; settings: bone marrow day 24; Conjugate 1 0.3 mg/kg SC days 14 and 21; antibody 0.5 mg/kg IP day 14
Procedure: (§1) Balb/c mice bearing Daudi B cell lymphoma tumors in the bone marrow (n=6/group) were intraperitoneally administered a single 0.5 mg/kg dose of the human CD38 protein targeting clinical antibody daratumumab (DARZALEX®, Janssen Biotech) or a nonspecific control antibody with a matching isotype on day 14 after Daudi cell intravenous inoculation. Additional groups were administered mono(methoxyPEG-N-butanamide)40 kD interleukin-15 (Conjugate 1) subcutaneously at a dose of 0.3 mg/kg as a single agent on days 14 and 21 after Daudi cell inoculation, or administered a combination treatment of Conjugate 1 administered subcutaneously at doses of 0.03 mg/kg or 0.3 mg/kg on days 14 and 21 after Daudi cell inoculation and daratumumab administered intraperitoneally at a dose of 0.5 mg/kg on day 14 after Daudi cell inoculation.
Three days following the second Conjugate 1 administration (day 24 after Daudi inoculation), bone marrow was collected and the NK cell fraction was measured by flow cytometry in total bone marrow. Expression of the cell surface activating receptor NKG2D and the inhibitory checkpoint receptor NKG2A are shown in FIGS. 7A and 7B, respectively.

[4] = tested on: NK cells; assay: CD16 surface expression on bone marrow NK cells of Daudi lymphoma bearing mice (Example 10); assay type: in vivo; settings: bone marrow day 24
Procedure: as §1, with “were treated with (i) mono(mPEG-N-butanamide)40” for “were administered mono(methoxyPEG-N-butanamide)40”, “1) administered” for “1)”, “or (ii)” for “or administered”
Three days following the second Conjugate 1 administration (day 24 after Daudi inoculation), bone marrow was collected and the NK cell fraction was measured by flow cytometry in total bone marrow. The fraction of NK cells expressing the cell surface CD16 receptor that is known to mediate antibody dependent cellular cytotoxicity mechanism in the presence of tumor targeting antibodies, and the change in CD16 expression per cell basis on NK cells are shown in FIGS. 13A and 13B, respectively.

[5] = tested on: NK cells; assay: Granzyme B expression per cell in bone marrow NK cells of Daudi lymphoma bearing mice (Example 11); assay type: in vivo; settings: bone marrow day 24; Conjugate 1 0.3 mg/kg; antibody 0.5 mg/kg
Procedure: as §1, with “daratumumab (DARZALEX®),” for “daratumumab (DARZALEX®,”, “were treated with (i) mono(mPEG-N-butanamide)40” for “were administered mono(methoxyPEG-N-butanamide)40”, “1) administered” for “1)”, “or (ii)” for “or administered”
Three days following the second Conjugate 1 administration (day 24 after Daudi inoculation), bone marrow was collected and the NK cell fraction was measured by flow cytometry in total bone marrow.

[6] = tested on: Daudi B cell lymphoma; assay: Daudi cell counts in bone marrow, low and high doses (Example 14); assay type: in vivo, mice; settings: day 24, single agent
Procedure: SCID mice (N=6/group) were intravenously inoculated with 10 million Daudi cells on Day 0 and treated with a single dose of a lower or higher dose of daratumumab (0.05 mg/kg or 5 mg/kg IP, 14 days following Daudi cell inoculation) and two doses of either lower or higher dose mono(methoxyPEG-N-butanamide)interleukin-15 (compound 1) (0.03 mg/kg or 0.6 mg/kg intravenously, one dose at each of 14 and 21 days after inoculation). Mice were also treated with the single agent therapies: daratumumab (0.05 mg/kg or 5 mg/kg IP, 14 days following Daudi cell inoculation) or two doses of mono(methoxyPEG-N-butanamide)40 kD interleukin-15 (compound 1) (0.03 mg/kg or 0.6 mg/kg intravenously, 14 and 21 days after inoculation). Daudi cell numbers in the bone marrow were assessed three days following the second dose of mono(methoxyPEG-N-butanamide)40 kD interleukin-15 (day 24) by flow cytometry as shown in FIGS. 17A and 17B.

[7] = tested on: STAT5 phosphorylation in KHYG-1 cells; assay: Phosphorylation of STAT5 in KHYG-1 cells (Example 7); assay type: cell-based, human; settings: 10 minutes
Procedure: KHYG-1 cells were cultured in RPMI-1640 medium supplemented with 20% FBS, 2 mM L-glutamine, and 20 ng/mL IL-2 (Complete growth medium) in a humidified incubator at 37° C. and 5% CO2.
One day prior to treatment with test compounds, cells were seeded at a density of 500,000 viable cells/ml in Complete growth medium and incubated overnight under normal growth conditions. On the day of the assay, KHYG-1 cells were washed 3 times with DPBS, resuspended in assay medium (RPMI-1640 medium supplemented with 20% FBS, 2 mM L-glutamine), and incubated for 4-5 hours at 37° C., 5% CO2. Cells were adjusted to the appropriate density (8×10^5 cells/mL) in assay medium and 50,000 cells/well were aliquoted into wells of a 96-well plate (View-Plate 96, Perkin-Elmer).
KHYG-1 cells were stimulated with IL-15 or a long-acting IL-15 receptor agonist (mono(mPEG-butanamide)IL-15) followed by incubation at 37° C., 5% CO2 for 10 minutes. Treated cells were lysed on ice.
Detection of phospho-STAT5 protein levels in cell lysates was performed using the Phospho(Tyr694)/Total STAT5a,b Assay Whole Cell Lysate kit (MSD product #K15163D). Relative light unit (RLU) signal corresponding to phosphor-STAT5 was collected using a Sector® Imager 2400 plate reader (MSD) with the results provided in FIG. 10A.

[8] = tested on: CD56+ human NK cells; assay: Dose response of human NK cell proliferation in CFSE labeled PBMCs (Example 8); assay type: cell-based; settings: 5 days
Procedure: Human peripheral blood mononuclear cell (PBMCs) labeled with a CFSE preparation were incubated for 5 days in vitro in the presence of increasing doses of rhIL-15 (dose range 1 ng/ml-100 ng/ml, 5 point, 3 fold dilutions) or a long-acting IL-15 receptor agonist (mono(mPEG-butanamide)IL-15) (dose range 10 ng/ml-1000 ng/ml, 5 point, 3 fold dilutions). After the incubation period, cell proliferation as indicated by the decrease of CFSE in the cells that had undergone cell doublings was measured with flow cytometry measuring CFSE levels in CD56+ human NK cells within the PBMCs preparation.

[9] = tested on: STAT5 phosphorylation in lymphocytes; assay: STAT5 phosphorylation in lymphocytes at time points after administration in mice, flow cytometry; assay type: in vivo
From the text: Conventional approaches, such as those involving radiolabeling a compound, administering the compound in vivo, and determining its clearance, can be used to assess whether a compound proposed to be a long-acting, IL-15 receptor agonist is “long-acting” (i.e., has a clearance that is longer than that of IL-15 administered in the same in vivo system). For the purposes herein, the long-acting nature of a long-acting IL-15 receptor agonist may be, and is typically determined using flow cytometry to measure STAT5 phosphorylation in lymphocytes at various time points after administration of the agonist to be evaluated in mice. As a reference, the signal is lost by around 24 hours with IL-15, but is sustained for a period greater than that for a long-acting IL-15 agonist.

[10] = Conjugate 1 0.3 mg/kg, antibody 0.5 mg/kg

With “rituximab: anti-CD20 monoclonal antibody (Rituxan®, Genentech) [reference compound]” the survival [1] was 0%.

For “Daratumumab: anti-CD38 monoclonal antibody (DARZALEX®, Janssen Biotech) [reference compound]”, the median survival [2] was 28.5 days, the “% NK cells expressing NKG2A (mean, n = 6)” value [3] was 54.83% and the “% NK cells expressing NKG2D (mean, n = 6)” value [3] was 10.22%. The “Fraction of NK cell expressing cell surface CD16 (mean value)” value ([4]; Conjugate 1 0.3 mg/kg SC days 14 and 21, antibody 0.5 mg/kg IP day 14) was 81%, the “CD16 mean fluorescence intensity (MFI mean value)” value [4, 10] was 448 and the “Relative CD16 expression compared to untreated condition” value [4, 10] was “No increase (1x)”. The “Granzyme B mean fluorescence intensity (MFI mean value)” value [5] was 272, the “Relative Granzyme B expression compared to untreated condition” value [5] was “No increase (0.7x)” and the “intra-bone marrow tumor cells depleted” value ([6]; high dose (daratumumab 5 mg/kg; compound 1 0.6 mg/kg)) was 58%. For the same substance, the “intra-bone marrow tumor cells depleted” value ([6]; low dose (daratumumab 0.05 mg/kg; compound 1 0.03 mg/kg)) was 30%.

With “rhIL-15: recombinant human interleukin-15 (SEQ ID NO: 1), unconjugated comparator [reference compound]” the “phosphorylation of STAT5” value [7] was “dose-dependent phosphorylation of STAT5”, the “EC50 (ng/ml)-% proliferation” value [8] was 2.28 ng/mL and the Emax-% proliferation [8] was 69.6%. For the same substance, the “time by which the STAT5 phosphorylation signal is lost” value [9] was “around 24 hours”.
